Assay results from patent US7368570B2, “Organometallic complexes as singlet oxygen sensitizers” (University of Southern California, priority 2003, dated 2008).

Columns and labels:
[1] = quantum yield for singlet oxygen production from 1O2 luminescence at 1268 nm; format: physicochemical; settings: for ΦΔ532 nm: only measured if compounds absorb at 532 nm; for ΦΔ quantum yield for singlet oxygen generation: benzene, air-saturated
Text: The quantum yields for singlet oxygen production (ΦΔ) were obtained by measuring the intensity of the ^1O2 luminescence signal (λmax=1268 nm). Measurements were taken with 355 and 532 nm excitation (λ), in air-saturated solutions.
The quantum yields were obtained by measuring the intensity of the ^1O2 luminescence signal (λmax=1268 nm), with a liquid nitrogen cooled germanium photodiode. Measurements were taken at 355 and 532 nm excitation, in air-saturated solutions, with TPP, C60 and Perinaphthenone as references. The optical density of the photosensitizer solutions was generally kept between 0.05 and 0.4 at 355 nm excitation wavelength, and 0.03 and 0.2 at 532 nm excitation wavelength.

[2] = singlet oxygen luminescence quenching rate constants; format: physicochemical; settings: for kq singlet oxygen quenching rate: Table 3, not marked MeOD, TPP in benzene or chloroform
Protocol: (§1) TPP in benzene or chloroform with OD 0.5-0.7 was used as blank/solvent solution to produce singlet oxygen. The intensity of ^1O2 luminescence signals was measured at 532 nm excitation in air-saturated solutions with a liquid nitrogen cooled germanium photodiode at 1268 nm. 0.02-0.5 mL quencher stock solution of Ir(III) complexes in […] was added to the blank solution. The decay trace of singlet oxygen was then re-measured, and the additions repeated 6-10 times. Singlet oxygen quenching rate constants by the Ir(III) complexes were obtained from the slopes of Stern Volmer plots (See FIG. 7).

[3] = phosphorescence emission properties in solution; format: physicochemical; settings: room temperature, from the phosphorescence spectrum
Text: Table 3 provides quantum yields and singlet oxygen quenching rates for Ir(III) and Pt(II) complexes of this invention. Eem(eV)=the emission maximum energy in eV at room temperature, as determined from the phosphorescence spectrum; ΦPE=the quantum efficiency for emission in solution; τPE=the emission lifetime at room temperature or 77K (in solution).

[4] = from references (footnote e), cited from earlier work; for λem: emission
[5] = oxidation and excited state redox potentials; format: physicochemical
solubility = format: physicochemical
Protocol: as §1

[6] = 355 nm, reference value; cited from earlier work
[7] = 355 nm excitation, Table 3, not marked MeOD

CC(=Nc1cc(C)cc(C)c1)C(C)=Nc1cc(C)cc(C)c1.[CH3][Pt][CH3] [(CyPh2)PtMe2]
ΦΔ355 nm [1, 7]: 0 | ΦΔ532 nm ([1]; 532 nm excitation): 0 | kq singlet oxygen quenching rate [2]: (1.5 ± 0.1) × 10^9 M^−1s^−1

[CH3][Pt]1([CH3])[N]2C=CC=c3ccc4c(c32)[N]1C=CC=4 [(Phen)PtMe2]
ΦΔ355 nm [1, 7]: 0 | ΦΔ532 nm ([1]; 532 nm excitation): 0 | kq singlet oxygen quenching rate [2]: (2.0 ± 0.2) × 10^9 M^−1s^−1

CC1=CC(c2ccccc2)=c2ccc3c4c2[N]1[Pt]([CH3])([CH3])[N]4C(C)=CC=3c1ccccc1 [(PhenPh2)PtMe2]
ΦΔ355 nm [1, 7]: 0 | ΦΔ532 nm ([1]; 532 nm excitation): 0 | kq singlet oxygen quenching rate [2]: (1.7 ± 0.2) × 10^9 M^−1s^−1

CC(=O)C=C(C)[O][Ir]([c]1ccccc1-c1nc2ccccc2o1)[c]1ccccc1-c1nc2ccccc2o1 [(bo)2Ir(acac)]
ΦΔ355 nm [1, 7]: 0.76 ± 0.06 | kq singlet oxygen quenching rate [2]: (1.8 ± 0.3) × 10^5 M^−1s^−1 | Eem emission maximum energy [3]: 2.36 eV | λem [4]: 525 nm | ΦPE quantum efficiency for emission in solution [4]: 0.25

[CH3][Pt][CH3].c1ccc(-c2ccccn2)nc1 [(bpy)PtMe2]
ΦΔ355 nm [1, 7]: 0 | ΦΔ532 nm ([1]; 532 nm excitation): 0 | kq singlet oxygen quenching rate [2]: (2.4 ± 0.1) × 10^9 M^−1s^−1

c1ccc(-c2cccc[c]2[Ir]([c]2ccccc2-c2ccccn2)[c]2ccccc2-c2ccccn2)nc1 [(ppy)3Ir, Tris-(2-phenylpyridinato, N, C^2′) iridium (III)]
ΦΔ355 nm [1, 7]: 0.92 ± 0.07 | E(Sen^+/*) excited state redox potential ([5]; vs. NHE, E00 estimated using Eem): −1.45 V | E(Sen^+/0) oxidation potential ([5]; vs. ferrocene/ferrocenium): 0.32 V | solubility remark (solubility; Table 3, not marked MeOD): Not soluble

NCC(=O)[O][Ir]([c]1ccc2ccccc2c1-c1nc2ccccc2s1)[c]1ccc2ccccc2c1-c1nc2ccccc2s1 [BSN-G, iridium(III) bis(2-(1-naphthyl)benzothiazolato-N,C^2)glycinate]
ΦΔ355 nm [1, 7]: 0.54 ± 0.02 | ΦΔ quantum yield for singlet oxygen generation ([1]; 355 nm excitation): 0.54 ± 0.02 | ΦΔ355 nm ([1]; 355 nm excitation, measured in MeOD): 0.62 ± 0.05 | ΦΔ quantum yield for singlet oxygen generation ([1]; 532 nm excitation): 0.81 ± 0.06 | ΦΔ532 nm ([1]; 532 nm excitation): 0.81 ± 0.06 | kq singlet oxygen quenching rate [2]: (2.1 ± 0.5) × 10^6 M^−1s^−1 | Eem emission maximum energy [3]: 2.05 eV | solubility remark (solubility; line marked measured in MeOD): Not soluble | λem [4]: 606 nm

O=C1C=Cc2cccc3cccc1c23 [Perinaphthenone]
ΦΔ of reference for quantum yield measurements [6]: 0.95

c12c3c4c5c1c1c6c7c2c2c8c3c3c9c4c4c%10c5c5c1c1c6c6c%11c7c2c2c7c8c3c3c8c9c4c4c9c%10c5c5c1c1c6c6c%11c2c2c7c3c3c8c4c4c9c5c1c1c6c2c3c41 [Photosensitizer C60]
ΦΔ of reference for quantum yield measurements [6]: 0.76

iridium(III) bis(2-phenylbenzothiazolato-N, C^2)pyridyl chloride [BT-py]
singlet oxygen quantum yield / production, in words [1]: high quantum yield | ΦΔ355 nm [1, 7]: 0.95 ± 0.09 | ΦΔ quantum yield for singlet oxygen generation ([1]; 355 nm excitation): 0.95 ± 0.09 | ΦΔ quantum yield for singlet oxygen generation ([1]; 532 nm excitation): 1.00 ± 0.09 | ΦΔ532 nm ([1]; 532 nm excitation): 1.00 ± 0.09 | singlet oxygen quenching, in words [2]: no measurable singlet oxygen quenching | kq(^1O2) singlet oxygen quenching rate ([2]; benzene): None | Eem emission maximum energy [3]: 2.23 eV | λem [4]: 558 nm
